Experimental data published in PMC10652611 (Cell & Bioscience, 2023).
Each block holds one molecule with its values, some of them ahead of it.

Experiments:
[1] = cited from earlier work
NK2 [2] = assay: NanoBiT β-arrestin1 recruitment to NK2 (NK2-LgBiT/β-arr1-SmBiT); format: cell-based; settings: for effect of aprepitant on NKA-stimulated β-arrestin1 recruitment: 10 nM NKA
Description: (§1) Ligand-stimulated β-arrestin recruitment to receptors was also examined using the NanoBiT system. The NanoBiT system was used to create construct combinations of receptors and β-arrestin, which were tagged with either SmBiT or LgBiT at N- or C-terminal. These constructs were then expressed in HEK293 cells.
(§2) NanoLuc Binary Technology (NanoBiT) was utilized to investigate protein–protein interaction. HEK293 cells were seeded in a 96-well white plate at a density of 2 × 10^4 cells per well. The following day, cells were transfected with 50 ng of each plasmid containing SmBiT- or LgBiT- tagged genes using 0.2 µl Lipofectamine 2000 (Invitrogen, Carlsbad, CA, USA). To investigate the effect of one receptor on another receptor in β-arrestin recruitment, 100 ng of un-tagged receptor was co-transfected with 50 ng of each of NanoBiT-tagged plasmid and mixed with 0.4 µl Lipofectamine 2000. At 24 h after transfection, the medium was changed to 100 µl of Opti-MEM and the plate was stabilized at room temperature for 10 min before adding NanoBiT substrate. If an inhibitor was used, it was pre-incubated at 37 ℃ for 20 min and at room temperature for 10 min before substrate addition. Baseline luminescence was measure for 10 min using a SpectraMax L plate reader (Molecular Devices, San Jose, CA, USA). After stimulation with ligands, the luminescence signal was continuously measured for 1 h.

[3] = tested on: human colorectal cancer cell DLD-1; settings: cited from earlier work
From the text: Although some studies have reported that NK1 and NK2 are expressed in some cancers, the role of NK2 in cancer remains controversial.

NK1 = molecular target: T1, NK1 (Homo sapiens, UniProt P25103); assay: NanoBiT β-arrestin1 recruitment to NK1 (NK1-SmBiT/β-arr1-LgBiT); format: cell-based
T1 construct: expressed in transfected cells; host or cells: HEK293
T1 sequence (P25103 whole entry): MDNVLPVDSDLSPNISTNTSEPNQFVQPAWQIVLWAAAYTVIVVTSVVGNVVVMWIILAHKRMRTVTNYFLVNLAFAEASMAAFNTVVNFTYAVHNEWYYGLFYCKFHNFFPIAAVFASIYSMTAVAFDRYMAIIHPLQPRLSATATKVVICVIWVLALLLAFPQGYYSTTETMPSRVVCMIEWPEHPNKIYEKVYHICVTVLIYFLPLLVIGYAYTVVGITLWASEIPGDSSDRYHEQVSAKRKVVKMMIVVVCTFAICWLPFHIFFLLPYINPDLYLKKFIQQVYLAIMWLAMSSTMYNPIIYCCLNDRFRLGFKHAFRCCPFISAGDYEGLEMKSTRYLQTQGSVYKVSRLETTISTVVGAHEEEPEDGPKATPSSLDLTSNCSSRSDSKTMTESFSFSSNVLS
Description: as §1, §2

NK2 [4] = molecular target: T2, NK2 (Homo sapiens, UniProt P21452); assay: NanoBiT cytosolic Ca^2+ response, NK2; format: cell-based; settings: HEK293 cells, NK2, Calmodulin-SmBiT/LgBiT-MYLK2S, luminescence
T2 construct: expressed in transfected cells; host or cells: HEK293
T2 sequence (P21452 1-398): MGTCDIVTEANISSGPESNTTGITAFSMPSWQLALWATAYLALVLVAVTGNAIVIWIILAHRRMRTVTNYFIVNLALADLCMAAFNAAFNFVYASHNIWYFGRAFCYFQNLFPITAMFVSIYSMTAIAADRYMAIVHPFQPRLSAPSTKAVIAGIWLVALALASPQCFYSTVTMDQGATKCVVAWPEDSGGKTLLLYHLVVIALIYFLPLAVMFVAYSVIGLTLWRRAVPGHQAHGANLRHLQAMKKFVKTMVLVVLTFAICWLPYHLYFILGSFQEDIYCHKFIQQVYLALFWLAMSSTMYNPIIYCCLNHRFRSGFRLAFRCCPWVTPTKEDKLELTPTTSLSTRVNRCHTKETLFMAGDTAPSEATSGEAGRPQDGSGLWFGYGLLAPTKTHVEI
Description: NKs have been extensively studied, especially with respect to neuropeptide-stimulated Ca^2+ responses. Recently, we developed a real-time calcium assay based on NanoBiT and the Ca^2+-dependent interaction of calmodulin and its target proteins to analyze NK-mediated cellular responses. First, neuropeptide-stimulated luciferase activation was measured in cells expressing NKs and calcium probes to determine the suitability of our assay method. […] Next, the activation efficiency of receptors by each peptide was investigated on Ca^2+ responses based on NanoBiT assay.
NanoLuc Binary Technology (NanoBiT) was utilized to investigate protein–protein interaction. HEK293 cells were seeded in a 96-well white plate at a density of 2 × 10^4 cells per well. The following day, cells were transfected with 50 ng of each plasmid containing SmBiT- or LgBiT- tagged genes using 0.2 µl Lipofectamine 2000 (Invitrogen, Carlsbad, CA, USA). […] Baseline luminescence was measure for 10 min using a SpectraMax L plate reader (Molecular Devices, San Jose, CA, USA). After stimulation with ligands, the luminescence signal was continuously measured for 1 h.
Cytosolic Ca^2+ changes were detected using a NanoBiT system as described previously. […]

[5] = molecular target: Neurokinin-1 receptor, C-terminal SmBiT- or LgBiT-tagged (UniProt P25103 1-407); assay: cell-based or functional assay
Sequence of Neurokinin-1 receptor, C-terminal SmBiT- or LgBiT-tagged (P25103 whole entry): as the sequence (P25103 whole entry) above

effect of aprepitant on SP-stimulated β-arrestin1 recruitment (NK1; NK1-SmBiT/β-arr1-LgBiT, 1 μM aprepitant 30 min, 1 μM SP): completely inhibited
effect of aprepitant on NKA-stimulated β-arrestin1 recruitment (NK1; NK1-SmBiT/β-arr1-LgBiT, aprepitant 30 min, 10 nM NKA): inhibited
Molecule: C[C@@H](O[C@H]1OCCN(Cc2n[nH]c(=O)[nH]2)[C@H]1c1ccc(F)cc1)c1cc(C(F)(F)F)cc(C(F)(F)F)c1 [aprepitant]
antitumor activity [1]: antitumor activities through promoting apoptotic mechanisms
effect of aprepitant on SP-stimulated NK2/β-arrestin1 interaction (NK2 [2]; NK2-LgBiT/β-arr1-SmBiT + intact NK1, 10 nM SP, aprepitant): inhibited luciferase activities
effect of aprepitant on NKA-stimulated β-arrestin1 recruitment (NK2 [2]; NK2-LgBiT/β-arr1-SmBiT + intact NK1, aprepitant 30 min): not downregulated
effect of aprepitant on SP-stimulated β-arrestin1 recruitment (NK2 [2]; NK2-LgBiT/β-arr1-SmBiT, 1 μM aprepitant 30 min, 1 μM SP): not affected
effect of aprepitant on NKA-stimulated β-arrestin1 recruitment (NK2 [2]; NK2-LgBiT/β-arr1-SmBiT, aprepitant 30 min): not influenced
effect on AKT/mTOR and Wnt/β-catenin signaling pathways [3]: suppression of AKT/mTOR and Wnt/β-catenin signaling pathways
SP-stimulated luciferase activities in the presence of aprepitant and intact NK2 (NK1; NK1-SmBiT/β-arr1-LgBiT + intact NK2, 1 μM aprepitant 30 min, 1 μM SP): slightly increased by SP even in the presence of the inhibitor
NKA-stimulated luciferase activities in the presence of aprepitant and intact NK2 (NK1; NK1-SmBiT/β-arr1-LgBiT + intact NK2, aprepitant 30 min, 10 nM NKA): slightly increased by NKA in the presence of aprepitant

EC50 (NK2 [4]): 0.24 nM
Molecule: CSCC[C@H](NC(=O)[C@H](CC(C)C)NC(=O)CNC(=O)[C@@H](NC(=O)[C@H](Cc1ccccc1)NC(=O)[C@H](Cc1ccccc1)NC(=O)[C@H](CC(=O)O)NC(=O)[C@H](Cc1c[nH]cn1)NC(=O)[C@H](CCSC)NC(=O)[C@@H](N)CC(=O)O)C(C)C)C(N)=O [NKB, neurokinin B]

EC50 of SP for recruitment of β-arrestin1-SmBiT to NK2-LgBiT (NanoBiT luciferase) with intact NK1 co-expressed [5]: 164 nM
B1: Neurokinin-2 receptor, C-terminal SmBiT- or LgBiT-tagged (receptor, UniProt P21452 1-398, looked up)
chain: T2 sequence (P21452 1-398)
